Legend:
Test in all cases: combination Emax (second highest fraction inhibited in the dose matrix, 72 h); higher = more inhibition; extreme values may be limits of the assay
[1] = test system: ASH-3 (Thyroid Gland Carcinoma)
In short: (§1)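 Cell lines grown in DMEM/F12 or RPMI with 10% FBS were plated in 1536-well plates and held 24 hours at 37°C, 5% CO2 before 72 hours of exposure to two-drug dose matrices, with DMSO typically at 0.2%. CellTiter-Glo 2.0 luminescence gave viability, which was converted to inhibition. Vehicle wells were set to 0 and blank wells to 1. Combination Emax is the second-highest inhibition in the matrix, and Bliss excess is the observed combination effect minus the expected EA + EB − EA·EB, where EA and EB are the single-agent effects.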

BT-20 (Breast Carcinoma) = test system: BT-20 (Breast Carcinoma)
In short: as §1

[2] = test system: DG-75 (Burkitt's Lymphoma)
In short: as §1

EW-13 (Ewing's Sarcoma) = test system: EW-13 (Ewing's Sarcoma)
In short: as §1

EW-18 (Ewing's Sarcoma) = test system: EW-18 (Ewing's Sarcoma)
In short: as §1

GOTO (Neuroblastoma) = test system: GOTO (Neuroblastoma)
In short: as §1

[3] = test system: HC-1 (Other Blood Carcinomas)
In short: as §1

[4] = test system: KLE (Endometrial Carcinoma)
In short: as §1

NB7 (Neuroblastoma) = test system: NB7 (Neuroblastoma)
In short: as §1

[5] = test system: NCI-H2347 (Lung Adenocarcinoma)
In short: as §1

[6] = test system: NCI-H322M (Lung Adenocarcinoma)
In short: as §1

[7] = test system: NCI-H513 (Other Solid Carcinomas)
In short: as §1

NH-12 (Neuroblastoma) = test system: NH-12 (Neuroblastoma)
In short: as §1

[8] = test system: OCUB-M (Breast Carcinoma)
In short: as §1

[9] = test system: OCUM-1 (Gastric Carcinoma)
In short: as §1

[10] = test system: PF-382 (T-Lymphoblastic Leukemia)
In short: as §1

[11] = test system: PFSK-1 (Other Solid Carcinomas)
In short: as §1

[12] = test system: SCC-3 (B-Cell Non-Hodgkin's Lymphoma)
In short: as §1

[13] = test system: TGBC11TKB (Gastric Carcinoma)
In short: as §1

U-87-MG (Glioblastoma) = test system: U-87-MG (Glioblastoma)
In short: as §1

CC1(C)CCC(CN2CCN(c3ccc(C(=O)NS(=O)(=O)c4ccc(NCC5CCOCC5)c([N+](=O)[O-])c4)c(Oc4cnc5[nH]ccc5c4)c3)CC2)=C(c2ccc(Cl)cc2)C1 [Venetoclax] + CCN(CCO)CCCOc1ccc2c(Nc3cc(CC(=O)Nc4cccc(F)c4)[nH]n3)ncnc2c1 [AZD2811] (first compound max 1 µM, 7x7, partner max 1 µM)
combination Emax [1]: 0.318
combination Emax (BT-20 (Breast Carcinoma)): 0.294
combination Emax [2]: 0.204
combination Emax (EW-13 (Ewing's Sarcoma)): 0.109
combination Emax (EW-18 (Ewing's Sarcoma)): 0.707
combination Emax (GOTO (Neuroblastoma)): 0.693
combination Emax [3]: 0.712
combination Emax [4]: 0.273
combination Emax (NB7 (Neuroblastoma)): 0.259
combination Emax [5]: 0.145
combination Emax [6]: 0.188
combination Emax [7]: 0.183
combination Emax (NH-12 (Neuroblastoma)): 0.933
combination Emax [8]: 0.749
combination Emax [9]: 0.53
combination Emax [10]: 0.905
combination Emax [11]: 0.304
combination Emax [12]: 0.31
combination Emax [13]: 0.424
combination Emax (U-87-MG (Glioblastoma)): 0.265

NC1(C(=O)N[C@@H](CCO)c2ccc(Cl)cc2)CCN(c2ncnc3[nH]ccc23)CC1 [Capivasertib] + CC(C)n1c(=O)n(C)c2cnc3cc(F)c(-c4ccc(OCCCN5CCCCC5)nc4)cc3c21 [AZD1390] (first compound max 10 µM, 7x7, partner max 0.3 µM)
combination Emax [1]: 0.384
combination Emax (BT-20 (Breast Carcinoma)): 0.733
combination Emax [2]: 0.38
combination Emax (EW-13 (Ewing's Sarcoma)): 0.28
combination Emax (EW-18 (Ewing's Sarcoma)): 0.596
combination Emax (GOTO (Neuroblastoma)): 0.433
combination Emax [3]: 0.508
combination Emax [4]: 0.43
combination Emax (NB7 (Neuroblastoma)): 0.736
combination Emax [5]: 0.196
combination Emax [6]: 0.313
combination Emax [7]: 0.171
combination Emax (NH-12 (Neuroblastoma)): 0.363
combination Emax [8]: 1
combination Emax [9]: 0.571
combination Emax [10]: 0.612
combination Emax [11]: 0.462
combination Emax [12]: 0.216
combination Emax [13]: 0.13
combination Emax (U-87-MG (Glioblastoma)): 0.578

NC1(C(=O)N[C@@H](CCO)c2ccc(Cl)cc2)CCN(c2ncnc3[nH]ccc23)CC1 [Capivasertib] + C[C@@H]1COCCN1C2=NC(=NC(=C2)C3(CC3)[S@](=N)(=O)C)C4=C5C=CNC5=NC=C4 [AZD6738] (first compound max 10 µM, 7x7, partner max 10 µM)
combination Emax [1]: 0.697
combination Emax (BT-20 (Breast Carcinoma)): 0.771
combination Emax [2]: 0.845
combination Emax (EW-13 (Ewing's Sarcoma)): 0.67
combination Emax (EW-18 (Ewing's Sarcoma)): 0.811
combination Emax (GOTO (Neuroblastoma)): 0.948
combination Emax [3]: 0.749
combination Emax [4]: 0.59
combination Emax (NB7 (Neuroblastoma)): 0.635
combination Emax [5]: 0.327
combination Emax [6]: 0.81
combination Emax [7]: 0.386
combination Emax (NH-12 (Neuroblastoma)): 0.832
combination Emax [8]: 1
combination Emax [9]: 0.774
combination Emax [10]: 0.974
combination Emax [11]: 0.699
combination Emax [12]: 0.938
combination Emax [13]: 0.778
combination Emax (U-87-MG (Glioblastoma)): 0.714

— the supplement of paper PMC11061612
